From patent US9463197B2, “Method for treating abnormal polyglutamine-mediated disease” (NATIONAL TAIWAN NORMAL UNIVERSITY, priority 2013, dated 2016)

Key:
293 ATXN3/Q75-GFP cells = assay: ATXN3/Q75 aggregation assay (high content analysis); type: cell-based; settings: at 100 nM; doxycycline and oxaliplatin 6 days; positive control
Description: 293 ATXN3/Q75-GFP cells were plated into 96-well (2×10^4/well) dishes, grown for 24 hr and treated with different concentrations of the trehalose or analogs (100 nM˜100 μM) and suberoylanilide hydroxamic acid (SAHA, Cayman Chemical) for 8 hr. Then, doxycycline (10 μg/mL, BD) was added to the medium in each well to induce ATXN3/Q75-GFP expression for 6 days. Oxaliplatin (5 μM, Sigma) was also added to increase aggregate accumulation through inhibition of cell division. Then, cells were stained with Hoechst 33342 (0.1 μg/mL, Sigma) and aggregation percentage was assessed by high content analysis (HCA) system (ImageXpressMICRO, Molecular Devices), with excitation/emission wavelengths at 482/536 (EGFP).
In the present example, the influences of the trehalose and analogs and HDAC inhibitor SAHA in the ATXN3/Q75-GFP cells were respectively examined. After 6 days of the treatment of doxycycline and oxaliplatin, the fluorescence microscopy images were observed, and aggregation percentage of ATXN3/Q75-GFP cells was assessed by high-content analysis system. The result was shown in FIG. 3, as a positive control, HDAC inhibitor SAHA reduced the ATXN3/Q75 aggregation to 85% (at 100 nM) as compared to untreated cells (100%).

porcine kidney trehalase = target: T1, porcine kidney trehalase (Sus scrofa, UniProt I3LIR5); assay: Inhibition of analogs against trehalase activity (glucose from trehalose, HPLC); type: biochemical; settings: preincubated 30 min at 37°C
T1 sequence (I3LIR5 24-583): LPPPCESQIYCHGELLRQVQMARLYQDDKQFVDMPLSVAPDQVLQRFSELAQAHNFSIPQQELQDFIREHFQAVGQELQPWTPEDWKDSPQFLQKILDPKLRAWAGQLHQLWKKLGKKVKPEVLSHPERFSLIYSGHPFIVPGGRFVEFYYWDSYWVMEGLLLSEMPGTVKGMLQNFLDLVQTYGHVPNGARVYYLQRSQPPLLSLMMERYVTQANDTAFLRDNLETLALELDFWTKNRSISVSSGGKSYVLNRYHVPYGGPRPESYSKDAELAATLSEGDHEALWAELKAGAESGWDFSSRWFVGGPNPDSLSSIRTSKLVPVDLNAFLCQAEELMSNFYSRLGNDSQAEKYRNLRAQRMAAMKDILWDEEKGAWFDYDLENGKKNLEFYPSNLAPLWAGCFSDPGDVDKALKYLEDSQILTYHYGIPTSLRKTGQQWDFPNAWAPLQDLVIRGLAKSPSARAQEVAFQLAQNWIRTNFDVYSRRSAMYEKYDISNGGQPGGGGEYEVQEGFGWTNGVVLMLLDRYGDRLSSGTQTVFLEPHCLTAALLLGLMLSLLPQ
Description: Hydrolysis of trehalose and analogs was tested using porcine kidney trehalase (Sigma-Aldrich, T8778). The standard reaction was performed by adding 0.001 unit of trehalase into 50 μl reaction solution containing 135 mM citric acid (pH 5.7) and 28 mM trehalose or trehalose analogs. […] The standard reaction was performed by adding 0.001 unit of trehalase into 50 μl reaction solution containing 135 mM citric acid (pH 5.7) and 44.8 mM α-D-lactulose, 44.8 mM α-D-melibiose, 0.2 μM validamycin A, or 0.2 μM validoxylamine A. Trehalase was incubated with analog for 30 min at 37° C., and the reaction was then started by addition of trehalose. After incubation at 37° C. for 2 hr, the reaction was terminated by heating the mixture in boiling water for 15 min. The activity of trehalase was assayed by measuring the amount of glucose produced from trehalose. The amount of carbohydrates after each enzymatic reaction was measured using a high-performance liquid chromatography (HPLC) system (Schambeck SFD 2100) equipped with an refractive index (RI) detector (SFD, RI 2000) at a flow rate of 1 ml/min. A carbohydrate analysis column (Shodex SUGAR SZ5532, 6.0 mm ID×150 mm L) equilibrated with 75% acetonitrile, 24% Milli-Q water, and 1% formic acid was used. The RI detector and column oven temperature were set to 40 and 60° C., respectively.
Hydrolysis of trehalose, lactulose and melibiose (28 mM) was tested using porcine kidney trehalase (1 mU).

| Compound | Inhibition of trehalase activity (glucose generated from trehalose) (porcine kidney trehalase; 44.8 mM analog) | Inhibition of trehalase activity (glucose generated from trehalose) (porcine kidney trehalase; 0.2 μM inhibitor) | other results |
| --- | --- | --- | --- |
| O=C(CCCCCCC(=O)Nc1ccccc1)NO [SAHA, suberoylanilide hydroxamic acid] | – | – | ATXN3/Q75 aggregation as compared to untreated cells (100%) (293 ATXN3/Q75-GFP cells): 85% |
| OC[C@H]1O[C@@H](O[C@@H]2[C@@H](CO)O[C@](O)(CO)[C@H]2O)[C@H](O)[C@@H](O)[C@H]1O [lactulose, α-D-lactulose] | did not inhibit the trehalase activity | – | – |
| OC[C@H]1O[C@H](OC[C@H]2O[C@H](O)[C@H](O)[C@@H](O)[C@@H]2O)[C@H](O)[C@@H](O)[C@H]1O [melibiose, D-(+)-melibiose] | did not inhibit the trehalase activity | – | – |
| OCC1=C[C@@H](N[C@H]2C[C@H](CO)[C@@H](O[C@H]3O[C@@H](CO)[C@H](O)[C@@H](O)[C@@H]3O)[C@H](O)[C@H]2O)[C@H](O)[C@@H](O)[C@@H]1O [validamycin A] | – | can inhibit the trehalase activity | – |
| OCC1=C[C@H](N[C@H]2C[C@H](CO)[C@@H](O)[C@H](O)[C@H]2O)[C@H](O)[C@@H](O)[C@@H]1O [validoxylamine A] | – | can inhibit the trehalase activity | – |
